Experimental data as given in ChEMBL document CHEMBL1201862, “PubChem BioAssay data set” (2004).
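Cultured in 96-well plates, cells were exposed to test compound for 48 hours across five concentrations. Abbreviation: GI50, concentration required for 50% inhibition of growth.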 Activity calls are given as the source filed them. No stated cut-off is given here; in the data, active = GI50 up to about 1.1 µM and inactive = higher.

Experiments:
Test in all cases: growth of human tumour cells (NCI), 48 h
[1] = system: 786-0
[2] = system: A498
[3] = system: A549
[4] = system: ACHN
[5] = system: BT-549
[6] = system: CAKI-1
[7] = system: COLO 205
[8] = system: DU-145
[9] = system: EKVX
[10] = system: HCC 2998
[11] = system: HCT-116
[12] = system: HCT-15
[13] = system: HL-60
[14] = system: HOP-62
[15] = system: HOP-92
[16] = system: HT-29
[17] = system: Hs-578T
[18] = system: IGROV-1
[19] = system: K562
[20] = system: KM12
[21] = system: LOX IMVI
[22] = system: M14
[23] = system: MCF7
[24] = system: MDA-MB-231
[25] = system: MDA-MB-435
[26] = system: MDA-N
[27] = system: MOLT-4
[28] = system: Malme-3M
[29] = system: NCI-H226
[30] = system: NCI-H23
[31] = system: NCI-H460
[32] = system: NCI-H522
[33] = system: NCI/ADR-RES
[34] = system: OVCAR-3
[35] = system: OVCAR-4
[36] = system: OVCAR-5
[37] = system: OVCAR-8
[38] = system: PC-3
[39] = system: RPMI-8226
[40] = system: RXF 393
[41] = system: SF-268
[42] = system: SF-295
[43] = system: SF-539
[44] = system: SK-MEL-28
[45] = system: SK-MEL-2
[46] = system: SK-MEL-5
[47] = system: SN12C
[48] = system: SNB-19
[49] = system: SR
[50] = system: SW-620
[51] = system: TK-10
[52] = system: U-251
[53] = system: UACC-257
[54] = system: UACC-62
[55] = system: UO-31
[56] = system: CCRF-CEM
[57] = system: SK-OV-3
[58] = system: SNB-75

O=CC1C[C@@H](N2C(=O)O[C@@H](c3ccccc3)[C@H]2c2ccccc2)[C@@H]1COCc1ccccc1 (stereo not given in full)
GI50 [1]: 14.3 µM (inactive)
GI50 [2]: 20.9 µM (inactive)
GI50 [3]: 29.9 µM (inactive)
GI50 [4]: 24.8 µM (inactive)
GI50 [5]: 20.3 µM (inactive)
GI50 [6]: 36.2 µM (inactive)
GI50 [7]: 19.9 µM (inactive)
GI50 [8]: 17.7 µM (inactive)
GI50 [9]: 20 µM (inactive)
GI50 [10]: 15 µM (inactive)
GI50 [11]: 16.7 µM (inactive)
GI50 [12]: 18 µM
GI50 [13]: 18.9 µM (inactive)
GI50 [14]: 18 µM (inactive)
GI50 [15]: 15 µM (inactive)
GI50 [16]: 17.9 µM (inactive)
GI50 [17]: 25.6 µM (inactive)
GI50 [18]: 18.2 µM (inactive)
GI50 [19]: 21.1 µM (inactive)
GI50 [20]: 43.5 µM (inactive)
GI50 [21]: 17.7 µM (inactive)
GI50 [22]: 19.1 µM (inactive)
GI50 [23]: 17.8 µM (inactive)
GI50 [24]: 15.7 µM (inactive)
GI50 [25]: 18.2 µM (inactive)
GI50 [26]: 15 µM (inactive)
GI50 [27]: 6.04 µM (inactive)
GI50 [28]: 17 µM (inactive)
GI50 [29]: 20.2 µM (inactive)
GI50 [30]: 17.6 µM (inactive)
GI50 [31]: 18.3 µM (inactive)
GI50 [32]: 16.4 µM (inactive)
GI50 [33]: 26.6 µM (inactive)
GI50 [34]: 14.8 µM (inactive)
GI50 [35]: 28.6 µM (inactive)
GI50 [36]: 22.4 µM (inactive)
GI50 [37]: 21.2 µM (inactive)
GI50 [38]: 19.5 µM (inactive)
GI50 [39]: 17.9 µM (inactive)
GI50 [40]: 18.7 µM (inactive)
GI50 [41]: 17.3 µM (inactive)
GI50 [42]: 17.3 µM (inactive)
GI50 [43]: 18.7 µM (inactive)
GI50 [44]: 20 µM (inactive)
GI50 [45]: 16.4 µM (inactive)
GI50 [46]: 15.2 µM (inactive)
GI50 [47]: 17 µM (inactive)
GI50 [48]: 19.9 µM (inactive)
GI50 [49]: 10.3 µM (inactive)
GI50 [50]: 21.5 µM (inactive)
GI50 [51]: 20.1 µM (inactive)
GI50 [52]: 16.6 µM (inactive)
GI50 [53]: 17.9 µM (inactive)
GI50 [54]: 16.8 µM (inactive)
GI50 [55]: 15.2 µM (inactive)

CCCCc1ccc2[n+](c1)C(C(=O)OCC)=PC2 (stereo not given)
GI50 [1]: 72.1 µM (inactive)
GI50 [2]: > 100 µM (inactive)
GI50 [3]: > 100 µM (inactive)
GI50 [4]: > 100 µM (inactive)
GI50 [5]: > 100 µM (inactive)
GI50 [6]: > 100 µM (inactive)
GI50 [56]: 42.4 µM (inactive)
GI50 [7]: > 100 µM (inactive)
GI50 [8]: > 100 µM (inactive)
GI50 [9]: > 100 µM (inactive)
GI50 [10]: > 100 µM (inactive)
GI50 [11]: > 100 µM (inactive)
GI50 [12]: 39.6 µM
GI50 [13]: 40.7 µM (inactive)
GI50 [14]: > 100 µM (inactive)
GI50 [15]: > 100 µM (inactive)
GI50 [16]: 42.8 µM (inactive)
GI50 [17]: 66.7 µM (inactive)
GI50 [18]: > 100 µM (inactive)
GI50 [20]: > 100 µM (inactive)
GI50 [22]: > 100 µM (inactive)
GI50 [23]: 30.7 µM (inactive)
GI50 [25]: > 100 µM (inactive)
GI50 [26]: 56.9 µM (inactive)
GI50 [27]: 37.5 µM (inactive)
GI50 [28]: > 100 µM (inactive)
GI50 [30]: 86.1 µM (inactive)
GI50 [31]: > 100 µM (inactive)
GI50 [32]: 54.2 µM (inactive)
GI50 [34]: > 100 µM (inactive)
GI50 [35]: > 100 µM (inactive)
GI50 [36]: > 100 µM (inactive)
GI50 [37]: > 100 µM (inactive)
GI50 [38]: > 100 µM (inactive)
GI50 [39]: 28.2 µM (inactive)
GI50 [40]: 31.9 µM (inactive)
GI50 [41]: > 100 µM (inactive)
GI50 [42]: > 100 µM (inactive)
GI50 [43]: > 100 µM (inactive)
GI50 [44]: > 100 µM (inactive)
GI50 [46]: > 100 µM (inactive)
GI50 [57]: > 100 µM (inactive)
GI50 [47]: > 100 µM (inactive)
GI50 [58]: 44.7 µM (inactive)
GI50 [49]: 32.7 µM (inactive)
GI50 [50]: > 100 µM (inactive)
GI50 [51]: > 100 µM (inactive)
GI50 [52]: 71.4 µM (inactive)
GI50 [53]: > 100 µM (inactive)
GI50 [54]: > 100 µM (inactive)
